Source: ChEMBL document CHEMBL1142026, “Isoindolinone-based inhibitors of the MDM2-p53 protein-protein interaction” (Bioorg Med Chem Lett, 2005)
pIC50: −log10 of the molar value.

Experiments:
[1] = biological target: Tumour suppressor p53/oncoprotein Mdm2 (Homo sapiens, UniProt Q00987); assay: (§1) Inhibitory concentration against MDM2-p53 interaction in SJSA human sarcoma cells; type: cell-based, SJSA-1
[2] = biological target: Tumour suppressor p53/oncoprotein Mdm2 (Homo sapiens, UniProt P04637+Q00987); assay: as §1; type: cell-based, SJSA-1; details: sjsa-1
Tumour suppressor p53/oncoprotein Mdm2 (Homo sapiens, UniProt P04637+Q00987), sequence (P04637 whole entry): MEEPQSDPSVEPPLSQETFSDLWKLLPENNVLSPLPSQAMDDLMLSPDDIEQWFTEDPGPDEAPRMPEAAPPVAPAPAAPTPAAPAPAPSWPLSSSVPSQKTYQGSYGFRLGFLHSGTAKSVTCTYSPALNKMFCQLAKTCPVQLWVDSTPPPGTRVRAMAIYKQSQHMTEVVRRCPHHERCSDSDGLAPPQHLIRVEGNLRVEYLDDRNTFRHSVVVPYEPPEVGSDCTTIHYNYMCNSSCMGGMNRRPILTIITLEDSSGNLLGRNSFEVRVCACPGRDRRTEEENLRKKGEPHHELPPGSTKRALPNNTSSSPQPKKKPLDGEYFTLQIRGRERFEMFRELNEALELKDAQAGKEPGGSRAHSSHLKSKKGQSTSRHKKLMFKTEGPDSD
Tumour suppressor p53/oncoprotein Mdm2 (Homo sapiens, UniProt P04637+Q00987), sequence (Q00987 whole entry): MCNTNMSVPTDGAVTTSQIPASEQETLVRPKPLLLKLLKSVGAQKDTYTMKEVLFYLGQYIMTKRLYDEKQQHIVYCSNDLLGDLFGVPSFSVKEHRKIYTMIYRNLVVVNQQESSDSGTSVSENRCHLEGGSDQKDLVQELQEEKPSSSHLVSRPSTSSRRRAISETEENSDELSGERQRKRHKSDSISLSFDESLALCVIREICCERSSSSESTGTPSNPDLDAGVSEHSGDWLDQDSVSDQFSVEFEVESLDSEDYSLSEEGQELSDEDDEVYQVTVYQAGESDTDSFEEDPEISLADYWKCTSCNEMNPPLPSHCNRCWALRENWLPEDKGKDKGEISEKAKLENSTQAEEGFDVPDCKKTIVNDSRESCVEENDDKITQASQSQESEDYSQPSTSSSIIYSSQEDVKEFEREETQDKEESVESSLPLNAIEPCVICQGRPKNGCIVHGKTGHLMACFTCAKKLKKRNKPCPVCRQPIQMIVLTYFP

Tumour suppressor p53/oncoprotein Mdm2 (Homo sapiens, UniProt Q00987), sequence (P04637 whole entry): as the sequence (P04637 whole entry) above
Tumour suppressor p53/oncoprotein Mdm2 (Homo sapiens, UniProt Q00987), sequence (Q00987 whole entry): as the sequence (Q00987 whole entry) above

Work on `COc1cc(COC2(c3ccccc3)c3ccccc3C(=O)N2Cc2ccccc2)cc(OC)c1O` (centres undefined) yielded a pIC50 [1] of 4.75.
`CCCN1C(=O)c2ccccc2C1(OCCCO)c1ccccc1` (centres undefined) was tested, and the pIC50 [1] was under 3.30.
With `CCCN1C(=O)c2ccccc2C1(OCCc1ccccn1)c1ccccc1` (centres undefined) the pIC50 [1] was 4.00.
`COc1ccc(C(O)CNC2(c3ccccc3)c3ccccc3C(=O)N2Cc2ccccc2)cc1` (centres undefined) was tested, and the pIC50 [1] was 4.15.
With `COc1cc(COC2(c3ccc(Cl)cc3)c3ccccc3C(=O)N2CCNC(C)=O)cc(OC)c1O` (centres undefined) the pIC50 [1] was 4.12.
`CCCN1C(=O)c2ccccc2C1(NC(=O)c1ccc(C(C)(C)C)cc1)c1ccc(OCOCC[Si](C)(C)C)cc1` (centres undefined) was tested, and the pIC50 [1] was 4.57.
In the case of `CCCOC1(c2ccccc2)c2ccccc2C(=O)N1Cc1ccccc1` (centres undefined), the pIC50 [1] was about 3.70.
Work on `CCCN1C(=O)c2ccccc2C1(OCc1ccc(C(C)(C)C)cc1)c1ccccc1` (centres undefined) yielded a pIC50 [1] of under 3.30.
`CC(C)(C)c1ccc(COC2(c3ccc(Cl)cc3)c3ccccc3C(=O)N2Cc2ccccc2)cc1` (centres undefined) gave a pIC50 [1] of 4.00.
In the case of `CCCNC1(c2ccccc2)c2ccccc2C(=O)N1Cc1ccccc1` (centres undefined), the pIC50 [1] was about 3.70.
With `COc1cc(COC2(c3ccc(Cl)cc3)c3ccccc3C(=O)N2Cc2ccccc2)cc(OC)c1O` (centres undefined) the pIC50 [1] was 4.38.
With `CCCOC1(c2ccccc2)c2ccccc2C(=O)N1C(Cc1ccc(O)cc1)C(=O)OC` (centres undefined) the pIC50 [1] was 4.05.
`CC(=O)NCCN1C(=O)c2ccccc2C1(OCc1ccc(C(C)(C)C)cc1)c1ccccc1` (centres undefined) was tested, and the pIC50 [1] was 4.85.
Compound `CCCOC1(c2ccccc2)c2ccccc2C(=O)N1CCC` (centres undefined) has a pIC50 [1] of about 3.70.
`O=C1c2ccccc2C(OCCCO)(c2ccc(Cl)cc2)N1Cc1ccccc1` (centres undefined) gave a pIC50 [1] of 4.80.
`CCCN1C(=O)c2ccccc2C1(NC(=O)c1ccccc1)c1ccc(C(C)(C)C)cc1` (centres undefined) gave a pIC50 [1] of 4.18.
For `CCCN1C(=O)c2ccccc2C1(OCc1cc(OC)c(O)c(OC)c1)c1ccc(Cl)cc1` (centres undefined), the pIC50 [1] was 5.28.
`O=C1c2ccccc2C(OCCc2ccccn2)(c2ccc(Cl)cc2)N1Cc1ccccc1` (centres undefined) gave a pIC50 [1] of 4.58.
`CC(=O)NCCN1C(=O)c2ccccc2C1(OCc1ccc(C(C)(C)C)cc1)c1ccc(Cl)cc1` (centres undefined) was tested, and the pIC50 [1] was 4.04.
Compound `CCCN1C(=O)c2ccccc2C1(OCc1cc(OC)c(O)c(OC)c1)c1ccccc1` (centres undefined) has a pIC50 [1] of 4.09.
`CCCN1C(=O)c2ccccc2C1(OCCc1ccccn1)c1ccc(Cl)cc1` (centres undefined) gave a pIC50 [1] of 4.24.
`CCCN1C(=O)c2ccccc2C1(OCCCO)c1ccc(Cl)cc1` (centres undefined) showed a pIC50 [1] of 4.79.
Work on `CC(C)(C)c1ccc(COC2(c3ccccc3)c3ccccc3C(=O)N2Cc2ccccc2)cc1` (stereo in doubt; 2d) yielded a pIC50 [2] of 4.04.
Compound `CC(C)(C)c1ccc(COC2(c3ccccc3)c3ccccc3C(=O)N2Cc2ccccc2)cc1` (stereo in doubt; 5) has a pIC50 [1] of 4.04.
